According to PMC6522510 (Nature Communications, 2019):
Read-outs that look alike come from different tables or passages of the source. Numbered stars: 1 amine (or outer) side, 2 acyl side, 3 side chain; on linkers, the order of the positions; unused ones are H or OH. Bridge positions count the residues as written; N and C are the ends. Square brackets hold non-standard residues; d marks the D form. Peptide text beside a SMILES is read from it. I, II: the chains in the order shown. Actinocin(9to1) = Cc1c2oc3c(C)ccc(C(=O)[*:1])c3nc-2c(C(=O)[*:2])c(N)c1=O; NMeV = CN[C@H](C(=O)O)C(C)C; Sar = CNCC(=O)O

Assays:
Assay in all cases: Secondary dose-response HTS, Cell Titer Glo; call rule not given here
Type in all cases: cell-based, human
MOLM-13 = settings: MOLM-13
MV4-11 = settings: MV4-11; for EC50: Homo sapiens
CHRF288-11 = settings: for EC50: Homo sapiens
CMK = settings: CMK
CMS = settings: for EC50: Homo sapiens
M07e = settings: for EC50: Homo sapiens, M-07e
ML2 = settings: ML-2; for EC50: Homo sapiens
U937 = system: U937
[1] = secondary high-throughput screen
[2] = secondary high-throughput screen, CHRF288-11
[3] = secondary high-throughput screen, CMS
[4] = secondary high-throughput screen, M07e
[5] = secondary high-throughput screen, U937
[6] = Homo sapiens, secondary HTS, 72 h, average of triplicate, read-out: EC50 MOLM-13
[7] = secondary HTS, 72 h, average of triplicate, read-out: EC50 MV4-11
[8] = secondary high-throughput screen, read-out: average effective concentration, MV4-11
[9] = HTS, secondary high-throughput screen, CHRF288-11, read-out: average effective concentration, CHRF288-11
[10] = Homo sapiens, secondary HTS, 72 h, average of triplicate, read-out: EC50 CMK
[11] = HTS, secondary high-throughput screen, CMS, read-out: average effective concentration, CMS
[12] = secondary HTS, 72 h, average of triplicate, read-out: EC50 CMS
[13] = secondary HTS, 72 h, average of triplicate, read-out: EC50 M07e
[14] = secondary high-throughput screen, M07e, read-out: average effective concentration, M07e
[15] = secondary HTS, 72 h, average of triplicate, read-out: EC50 ML2
[16] = secondary high-throughput screen, read-out: average effective concentration, ML-2
[17] = Homo sapiens, U-937, secondary HTS, 72 h, average of triplicate, read-out: EC50 U937
[18] = Homo sapiens, U-937, secondary high-throughput screen, U937, read-out: average effective concentration, U937
[19] = Homo sapiens, secondary high-throughput screen, read-out: average effective concentration, MOLM-13

| Compound | average effective concentration, MOLM-13 (MOLM-13; [1]) | average effective concentration, MV4-11 (MV4-11; [1]) | average effective concentration, CHRF288-11 (CHRF288-11; [2]) | average effective concentration, CMK (CMK; [1]) | average effective concentration, CMS (CMS; [3]) | average effective concentration, M07e (M07e; [4]) | average effective concentration, ML-2 (ML2; [1]) | average effective concentration, U937 (U937; [5]) | EC50 (MV4-11; [8]) [µM] | other results |
| --- | --- | --- | --- | --- | --- | --- | --- | --- | --- | --- |
| O=C(NC(NC(=S)Nc1ccc(F)c([N+](=O)[O-])c1)C(Cl)(Cl)Cl)C(c1ccccc1)c1ccccc1 (stereo not drawn) [CGK 733] | Inactive | Inactive | Inactive | Inactive | Inactive | Inactive | Inactive | Inactive |  |  |
| CNC(=O)c1c(F)cccc1Nc1nc(Nc2cc3c(cc2OC)CCN3C(=O)CN(C)C)nc2[nH]ccc12 [GSK1838705A] | Inactive | Inactive | Inactive |  | Inactive | Inactive | Inactive |  |  | EC50 (CMK; secondary high-throughput screen, read-out: average effective concentration, CMK): 5.8 µM; EC50 (U937; secondary high-throughput screen, U937, read-out: average effective concentration, U937): 6.2 µM |
| O=[N+]([O-])c1c(Nc2cc(F)cc(Cl)c2)ccc2nonc12 [HIF-C2] |  | Inactive | Inactive | Inactive | Inactive | Inactive | Inactive | Inactive |  | EC50 (MOLM-13; secondary high-throughput screen, read-out: average effective concentration, MOLM-13): 0.013 µM |
| COc1cccc(-c2cc(=O)c3ccccc3o2)c1N [PD 98059] | Inactive | Inactive | Inactive | Inactive | Inactive | Inactive | Inactive | Inactive |  |  |
| N[C@H](CCC(=O)N[C@@H](Cc1c[nH]c2ccccc12)C(=O)O)C(=O)O [GOLOTIMOD] | Inactive | Inactive | Inactive | Inactive | Inactive | Inactive | Inactive | Inactive |  |  |
| COC(=O)[C@H](CCSC)NC(=O)c1ccc(NC[C@@H](N)CS)cc1-c1ccccc1 [FTI-277] | Inactive | Inactive | Inactive | Inactive | Inactive | Inactive | Inactive | Inactive |  |  |
| C[C@@H]1O[C@@H](O[C@H]2C[C@@H](O)[C@]3(CO)[C@H]4[C@H](O)C[C@]5(C)[C@@H](C6=CC(=O)OC6)CC[C@]5(O)[C@@H]4CC[C@]3(O)C2)[C@H](O)[C@H](O)[C@H]1O [Ouabain, reference compound] |  |  |  |  |  |  |  |  | 0.038 | EC50 (MOLM-13; [6]): 0.03 µM; EC50 (MV4-11; [7]): 0.04 µM; EC50 (CHRF288-11; [9]): 0.043 µM; EC50 (CHRF288-11; secondary HTS, 72 h, average of triplicate, read-out: EC50 CHRF288-11): 0.04 µM; EC50 (CMK; [10]): 0.18 µM; EC50 (CMS; [11]): 0.046 µM; EC50 (CMS; [12]): 0.05 µM; EC50 (M07e; [13]): 0.06 µM; EC50 (M07e; [14]): 0.064 µM; EC50 (ML2; [15]): 0.03 µM; EC50 (ML2; [16]): 0.031 µM; EC50 (U937; [17]): 0.04 µM; EC50 (U937; [18]): 0.041 µM |
| Cc1c2oc3c(C)ccc(C(=O)N[C@@H]4C(=O)N[C@H](C(C)C)C(=O)N5CCC[C@H]5C(=O)N(C)CC(=O)N(C)[C@@H](C(C)C)C(=O)O[C@@H]4C)c3nc-2c(C(=O)N[C@@H]2C(=O)N[C@H](C(C)C)C(=O)N3CCC[C@H]3C(=O)N(C)CC(=O)N(C)[C@@H](C(C)C)C(=O)O[C@@H]2C)c(N)c1=O [Dactinomycin, reference compound] (I: T[dV]P[Sar][NMeV] / II: T[dV]P[Sar][NMeV]; ester I:1-I:C, II:1-II:C; linker I:N-II:N via Actinocin(9to1)) |  |  |  |  |  |  |  |  | 0.043 | EC50 (MOLM-13; [6]): 0.03 µM; EC50 (MOLM-13; [19]): 0.029 µM; EC50 (MV4-11; [7]): 0.04 µM; EC50 (CHRF288-11; HTS, 72 h, secondary HTS, 72 h, average of triplicate, read-out: EC50 CHRF288-11): 0.001 µM; EC50 (CMK; [10]): 0.001 µM; EC50 (CMS; [11]): 0.036 µM; EC50 (CMS; [12]): 0.04 µM; EC50 (M07e; [13]): 0.001 µM; EC50 (ML2; [15]): 0.001 µM; EC50 (U937; [17]): 0.001 µM |
| CN(C)C/C=C/C(=O)Nc1cc2c(Nc3ccc(F)c(Cl)c3)ncnc2cc1O[C@H]1CCOC1 [AFATINIB] |  |  |  |  |  |  |  |  | 5.4 | EC50 (MOLM-13; [19]): 5.6 µM; EC50 (CHRF288-11; [9]): 6.9 µM; EC50 (CMK; Homo sapiens, secondary high-throughput screen, read-out: average effective concentration, CMK): 3.6 µM; EC50 (CMS; [11]): 8.6 µM; EC50 (M07e; [14]): > 10 µM; EC50 (ML2; [16]): 7 µM; EC50 (U937; [18]): 6.2 µM |
| CN(N=O)C(=O)N[C@H]1C(O)O[C@H](CO)[C@@H](O)[C@@H]1O (mixture of isomers) [STREPTOZOSIN] | Inactive | Inactive | Inactive | Inactive | Inactive | Inactive | Inactive | Inactive |  |  |
| COc1cc2c(NC3CCN(C)CC3)nc(N3CCCN(C)CC3)nc2cc1OCCCN(C)C [UNC0224] | Inactive | Inactive | Inactive | Inactive | Inactive | Inactive | Inactive | Inactive |  |  |
| C[C@H]1[C@@H](O)O[C@@H]2O[C@@]3(C)CC[C@H]4[C@H](C)CC[C@@H]1[C@@]24OO3 [DIHYDROARTEMISININ] |  |  |  |  |  |  |  |  | 2.8 | EC50 (MOLM-13; [19]): 8.3 µM; EC50 (CHRF288-11; [9]): 9.5 µM; EC50 (CMK; Homo sapiens, read-out: average effective concentration, CMK): > 10 µM; EC50 (CMS; HTS, read-out: average effective concentration, CMS): > 10 µM; EC50 (M07e; [14]): > 10 µM; EC50 (ML2; [16]): 9 µM; EC50 (U937; [18]): 2.3 µM |
